Reference: the supplement of paper PMC10307832

What was measured:
Test in all cases: relative viability (nuclei count vs DMSO), 5 days (fraction); higher = more cells survive
KIN001-266 = compound: CCN1CCC(CC1)N2C=C(N=N2)CNC3=CC4=C(C(=CN=C4C(=C3)Cl)C#N)NC5=CC(=C(C=C5)F)Cl [KIN001-266]
In short: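 After an overnight hold at 37 °C, lung cancer cell lines in 1536-well plates were pinned with five library-drug doses (not always all listed), each √10 from the next, on vehicle-anchored plates. The cells stayed 5 days without fresh medium, then a one-step fix, permeabilisation and Hoechst stain preceded 4× imaging and MetaXpress nuclear counts. A plate passed only with control CV under 25% and at least one doubling. Viability is the median, over plates, of treated-well nuclei relative to vehicle-well nuclei.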

KIN001-266 + Trametinib = compound: CCN1CCC(CC1)N2C=C(N=N2)CNC3=CC4=C(C(=CN=C4C(=C3)Cl)C#N)NC5=CC(=C(C=C5)F)Cl [KIN001-266] + CC(=O)Nc1cccc(-n2c(=O)n(C3CC3)c(=O)c3c(Nc4ccc(I)cc4F)n(C)c(=O)c(C)c32)c1 [Trametinib] (partner 0.02 µM)
In short: (§1)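 Values are medians from duplicate plates. Each reflects relative viability, defined as the nuclei count of treated wells over that of vehicle wells. Lung cancer cell lines in 1536-well plates were pin-tool dosed one day after seeding with one drug alone or with a fixed anchor-drug dose plus five library-drug doses (not always all listed) in √10 steps, then fixed, stained and imaged at 4× after 5 days.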

KIN001-266 + OSI-027 = compound: CCN1CCC(CC1)N2C=C(N=N2)CNC3=CC4=C(C(=CN=C4C(=C3)Cl)C#N)NC5=CC(=C(C=C5)F)Cl [KIN001-266] + COc1cccc2cc(-c3nc([C@H]4CC[C@H](C(=O)O)CC4)n4ncnc(N)c34)[nH]c12 [OSI-027] (partner 0.5 µM)
In short: as §1

KIN001-266 + Phenformin = compound: CCN1CCC(CC1)N2C=C(N=N2)CNC3=CC4=C(C(=CN=C4C(=C3)Cl)C#N)NC5=CC(=C(C=C5)F)Cl [KIN001-266] + N=C(N)NC(=N)NCCc1ccccc1 [Phenformin] (partner 250 µM)
In short: as §1

Cell Line | relative viability (KIN001-266; 0.08 µM) | relative viability (KIN001-266; 0.253 µM) | relative viability (KIN001-266; 0.8 µM) | relative viability (KIN001-266; 2.53 µM) | relative viability (KIN001-266; 8 µM) | relative viability (KIN001-266 + Trametinib; first compound 0.08 µM) | relative viability (KIN001-266 + Trametinib; first compound 0.253 µM) | relative viability (KIN001-266 + Trametinib; first compound 0.8 µM) | relative viability (KIN001-266 + Trametinib; first compound 2.53 µM) | relative viability (KIN001-266 + Trametinib; first compound 8 µM) | relative viability (KIN001-266 + OSI-027; first compound 0.08 µM) | relative viability (KIN001-266 + OSI-027; first compound 0.253 µM) | relative viability (KIN001-266 + OSI-027; first compound 2.53 µM) | relative viability (KIN001-266 + OSI-027; first compound 8 µM) | relative viability (KIN001-266 + Phenformin; first compound 0.08 µM) | relative viability (KIN001-266 + Phenformin; first compound 0.253 µM) | relative viability (KIN001-266 + Phenformin; first compound 0.8 µM) | relative viability (KIN001-266 + Phenformin; first compound 2.53 µM) | relative viability (KIN001-266 + Phenformin; first compound 8 µM) | relative viability (KIN001-266 + OSI-027; first compound 0.8 µM)
PC-14 | 0.933 | 1.07 | 0.84 | 0.885 | 0.485 | 0.715 | 0.729 | 0.808 | 0.518 | 0.141 | 0.836 | 0.981 | 0.67 | 0.152 | 0.567 | 0.762 | 0.356 | 0.543 | 0.324 | –
RERF-LC-KJ | 1.05 | 1.04 | 0.975 | 0.992 | 0.726 | 0.945 | 0.849 | 0.823 | 0.778 | 0.556 | 0.645 | 0.614 | 0.498 | 0.351 | 0.436 | 0.354 | 0.415 | 0.355 | 0.345 | 0.519
SK-LU-1 | 1.09 | 1 | 0.987 | 0.886 | 0.709 | 0.518 | 0.451 | 0.437 | 0.369 | 0.429 | 0.358 | 0.307 | 0.346 | 0.26 | 0.561 | 0.47 | 0.526 | 0.439 | 0.394 | 0.403
SK-MES-1 | 1.02 | 1.02 | 0.992 | 0.942 | 0.783 | 0.564 | 0.562 | 0.551 | 0.522 | 0.47 | 0.694 | 0.676 | 0.573 | 0.474 | 0.648 | 0.695 | 0.693 | 0.519 | 0.459 | 0.575
SW 900 | 1.02 | 0.873 | 0.777 | 0.848 | 0.624 | 0.83 | 0.727 | 1.02 | 0.812 | 0.324 | 0.738 | 0.366 | 0.485 | 0.325 | 0.617 | 0.564 | 0.537 | 0.564 | 0.357 | 0.551
SW 1573 | 1.07 | 0.899 | 1.04 | 0.924 | 0.689 | 0.575 | 0.493 | 0.603 | 0.557 | 0.464 | 0.778 | 0.627 | 0.515 | 0.513 | 0.347 | 0.425 | 0.334 | 0.262 | 0.165 | 0.616
UMC-11 | 0.975 | 0.981 | 1 | 0.918 | 0.857 | 0.741 | 0.711 | 0.718 | 0.506 | 0.774 | 0.426 | 0.485 | 0.455 | 0.367 | 0.336 | 0.381 | 0.333 | 0.316 | 0.251 | 0.511
